Patent publication US9572788B2, “Cell permeable inhibitors of anaphase promoting complex” (President and Fellows of Harvard College, priority 2014, dated 2017)
Peptide text beside a SMILES is read from it. * marks the point of attachment. Cbz = O=C(OCc1ccccc1)*

Experiments:
Format in all cases: cell-based, human
HeLa H2B-GFP cells [1] = assay: Live cell imaging of mitotic duration and cell fate
Experimental: Detailed siRNA transfection and drug treatment schemes are described in supplemental experimental procedures. HeLa H2B-GFP cells were plated in DMEM with 10% FBS at 20% confluence. […] Live cell imaging was performed at 12 minute intervals on a Nikon TE2000E PFS inverted microscope fitted with an incubation chamber maintained at 37° C. and supplied with 5% CO2. Cell division was tracked by manual inspection of movies, and mitotic duration was measured as the time between the first frame of chromosome condensation and the frame of chromosome segregation (anaphase), decondensation (mitotic exit without anaphase) or cell death (chromosomes shrinking to a small bright dot).
The imaging plate was mounted onto a motorized stage (Prior ProScan II) on a Nikon TE2000E PFS inverted microscope fitted with an incubation chamber maintained at 37° C. and supplied with 5% CO2. A 20× Plan Apo 0.75 NA or 40× Plan Fluor 0.75 NA objective lens was used as indicated and images were collected with 2×2 binning. […] TIFF files of each image were exported from Elements and used to build stacks and Quicktime movies with Metamorph imaging software (Molecular Devices). For manual analysis, mitotic duration is counted as the time between the first frame of chromosome condensation and the frame of chromosome segregation (anaphase) or decondensation (mitotic exit in the presence of nocodazole) or cell death (chromosomes shrinking to a small bright dot).
HeLa H2B-GFP cells were plated in a 24-well plate in DMEM 10% FBS at 20% confluence one day prior to experiment and synchronized by double thymidine block as described above. […] Live cell imaging was set up as described above.
HeLa H2B-GFP cells were plated in a 24-well plate in DMEM+10% FBS at 20% confluence one day prior to the experiment and synchronized by double thymidine block as described above. The cells were released from the first thymidine block into 200 μl OptiMem without FBS. Transfection was performed immediately after the first thymidine release. […] The two mixtures were left at room temperature for 5 min before being mixed together and incubated for additional 20 min and then added to the cells to a final volume of 250 μl. 4 h after transfection, 250 μl of DMEM+20% FBS were added to cells.
HeLa H2B-GFP cells were plated in glass-bottom 24-well plates at 20% confluence one day prior to the experiment and synchronized by double thymidine block as described above. […] Cells were treated with 100 nM Hesperadin or DMSO 8 h after release from the second thymidine block and live cell imaging was set up as described above.
HeLa H2B-GFP cells were plated in a 24-well plate in DMEM+10% FBS at 20% confluence one day prior to experiment and synchronized by double thymidine block as synchronized above. […] Live cell imaging was set up as described above.
HeLa H2B-GFP cells were plated in a 24-well plate in DMEM+10% FBS at 20% confluence one day prior to experiment and synchronized by double thymidine block as described above. […] Untreated cells were used as the control. Live cell imaging was set up as described above. […] Alternatively, at 10 h after release from the second block, 10 μM MG132 with or without 25 μg/ml cycloheximide was added to the cells. […] Live cell imaging was set up as described above.
HeLa H2B-GFP cells were plated in a 24-well plate in DMEM+10% FBS at 20% confluence one day prior to experiment and synchronized by double thymidine block as described above. Mad2 siRNA transfection was performed as described above. At 10 h after release from the second block, 10 μM MG132 with or without 25 μg/ml cycloheximide was added to the cells. Live cell imaging was set up as described above. Manual analysis was focused only on cells that entered mitosis after MG132 addition.
Live cell imaging experiments. […] Nocodazole, taxol, proTAME, cyclinal and hesperadin were added to cells at 8 h after release. MG132 was added to cells at 10 h after release to allow mitotic entry.

HeLa H2B-GFP cells [2] = assay: Chromosome congression analysis
Experimental: HeLa H2B-GFP cells were plated in 35 mm glass-bottom dishes (MatTek) in DMEM+10% FBS at 20% confluence one day prior to the experiment and synchronized by double thymidine block as described above. Drugs were added as follows to a final volume of 3 ml from 2× concentrated preparation in culture medium. DMSO (0.06%), proTAME (3 and 12 μM) or 10 nM Nocodazole were added 8 h after release from the second block, while MG132 (10 μM) was added at 10 h. H2B-GFP was imaged for 4 hrs every 3 min at 40× magnification as described above.

HeLa cells = assay: Immunofluorescence of mitotic spindle and interkinetochore distance; details: asynchronous HeLa, 2 h; 12 μM proTAME; nocodazole or taxol
Experimental: HeLa cells grown in DMEM+10% FBS were plated on 25 mm glass coverslips in a E-well dish at a density of 130,000/ml×3 ml 48 h prior to treatment. They were then treated with 0.06% DMSO, 12 μM proTAME, 300 nM nocodazole or 300 nM taxol for 2 h. The cells were washed twice with PBS and fixed with 3% paraformaldehyde for 15 min. The cells were then washed with PBS and permeabilized with PBS plus 0.5% Triton X-100 for 2 min. The cells were then washed with PBS and blocked with PBS plus 5% FBS for 1 h. CREST antisera diluted 1:50 into PBS was added to the cells and incubated at room temperature for 1 h. The cells were washed with PBS and incubated with 1:1000 anti-human-Alexa 568 (Invitrogen, A21090) and 1:100 anti-α-tubulin-FITC for 1 h. The cells were then washed with PBS and the nuclei were stained with 1 μg/ml Hoechst 33342. The cover slips were mounted in 0.1M N-propylgallate in 9:1 glycerol:PBS. Z-series images were taken on a Nikon TE2000 microscope with PerkinElmer spinning disk confocal device. Maximal Z-projection images of individual cells were made by Image J. To measure interkinetochore distances, a straight line was drawn across a kinetochore pair in the same confocal plane and pixel intensities along the line were plotted so that each kinetochore would be represented by a peak on the line. The interkinetochore distance was calculated as the distance between the peaks. Fifty-five kinetochore pairs from 5 cells treated with DMSO or proTAME were measured and the p-value was calculated with a paired student test.

[3] = Fig 6C, compounds 8 h after release, 12 μM proTAME, 300 nM nocodazole, 150 nM taxol, 100 nM hesperadin
[4] = Fig 6D, Cdc27 siRNA, 100 nM hesperadin
[5] = Fig 6D, UbcH10 siRNA, 100 nM hesperadin
[6] = Fig 6D, control siRNA, 100 nM hesperadin
[7] = Fig 7A, control siRNA, 3 μM MG132
[8] = Fig 7B, MG132 3 μM, 100 nM hesperadin, 12 μM proTAME
[9] = Fig 7D, MG132 10 μM, 100 nM hesperadin, 12 μM proTAME
[10] = Fig 8B, MAD2 siRNA, MG132 10 μM ± 25 μg/ml cycloheximide
[11] = Fig 8B, control siRNA, MG132 10 μM ± 25 μg/ml cycloheximide
[12] = Fig S4C, proTAME 12 μM, MG132 10 μM, nocodazole 10 nM
[13] = Fig 8A, 12 μM proTAME, 300 nM nocodazole or 150 nM taxol, ± 25 μg/ml cycloheximide 4 h later

CCS(=O)(=O)Nc1ccc2c(c1)/C(=C(/Nc1ccc(CN3CCCCC3)cc1)c1ccccc1)C(=O)N2 [Hesperadin, reference compound]
Average mitotic duration (HeLa H2B-GFP cells [1]; [3]): 98.7 min | Median mitotic duration (HeLa H2B-GFP cells [1]; [3]): 96 min | Average mitotic duration (HeLa H2B-GFP cells [1]; [4]): 131.8 min | Median mitotic duration (HeLa H2B-GFP cells [1]; [4]): 132 min | Average mitotic duration (HeLa H2B-GFP cells [1]; [5]): 115.8 min | Median mitotic duration (HeLa H2B-GFP cells [1]; [5]): 108 min | Average mitotic duration (HeLa H2B-GFP cells [1]; [6]): 115.6 min | Median mitotic duration (HeLa H2B-GFP cells [1]; [6]): 120 min | Mitotic duration in the presence of taxol (HeLa H2B-GFP cells [1]; co-treated with taxol): ~2 h

CC(C)C[C@@H](C=O)NC(=O)[C@H](CC(C)C)NC(=O)[C@H](CC(C)C)NC(=O)OCc1ccccc1 [MG132, reference compound] (Cbz-Leu-Leu-Leu-aldehyde)
Median duration of mitotic arrest (HeLa H2B-GFP cells [1]; 3 μM): 15 h | Cells that exited mitosis (HeLa H2B-GFP cells [1]; 3 μM, 30 h experiment): 10% | Cells that exited mitosis (HeLa H2B-GFP cells [1]; 3 μM, cells depleted of Mad2 by RNAi): 50% | Response of arrested cells to roscovitine (HeLa H2B-GFP cells [1]; 100 μM roscovitine at 12 h after release): showed complete resistance to roscovitine | Average mitotic duration (HeLa H2B-GFP cells [1]; Fig 7A, MAD2 siRNA, 3 μM MG132): 605.3 min | Median mitotic duration (HeLa H2B-GFP cells [1]; Fig 7A, MAD2 siRNA, 3 μM MG132): 667.5 min | Average mitotic duration (HeLa H2B-GFP cells [1]; [7]): 830.1 min | Median mitotic duration (HeLa H2B-GFP cells [1]; [7]): 840 min | Average mitotic duration (HeLa H2B-GFP cells [1]; [8]): 1549.9 min | Median mitotic duration (HeLa H2B-GFP cells [1]; [8]): 1440 min | Average mitotic duration (HeLa H2B-GFP cells [1]; [9]): 2169.8 min | Median mitotic duration (HeLa H2B-GFP cells [1]; [9]): 2172 min | Average mitotic duration (HeLa H2B-GFP cells [1]; [10]): 1755.2 min | Median mitotic duration (HeLa H2B-GFP cells [1]; [10]): 1716 min | Average mitotic duration (HeLa H2B-GFP cells [1]; [11]): 1715.1 min | Median mitotic duration (HeLa H2B-GFP cells [1]; [11]): 1614 min | Time normal-appearing metaphase plate maintained (HeLa H2B-GFP cells [1]; MG132 alone): over 5 h | Median mitotic delay/arrest (HeLa H2B-GFP cells [1]; synchronized, drugs 10 hrs after release, proTAME 3 μM, low-dose MG132): 276 min | Delay in chromosome congression (HeLa H2B-GFP cells [2]; 3 μM proTAME or 10 μM MG132): caused no delay in chromosome congression | Average chromosome congression time (HeLa H2B-GFP cells [2]; [12]): 21.6 min | Median chromosome congression time (HeLa H2B-GFP cells [2]; [12]): 21 min

CC(=O)O[C@H]1C(=O)[C@@]2(C)[C@H]([C@H](OC(=O)c3ccccc3)[C@]3(O)C[C@H](OC(=O)[C@H](O)[C@@H](NC(=O)c4ccccc4)c4ccccc4)C(C)=C1C3(C)C)[C@]1(OC(C)=O)CO[C@@H]1C[C@@H]2O [Taxol, reference compound]
Average mitotic duration (HeLa H2B-GFP cells [1]; [3]): 1946.9 min | Median mitotic duration (HeLa H2B-GFP cells [1]; [3]): 2070 min | Average mitotic duration (HeLa H2B-GFP cells [1]; [13]): 1557.6 min | Median mitotic duration (HeLa H2B-GFP cells [1]; [13]): 1602 min | Median mitotic duration (HeLa H2B-GFP cells [1]; unsynchronized HeLa H2B-GFP, taxol 10 nM, proTAME 3 μM, control 60 min): 414 min | Effect on mitotic spindle (HeLa cells): strongly perturbed spindle organization
